Results reported in patent publication US7855076B2, “Use of discoidin domain receptor 1 (DDR1) and agents that affect the DDR1/collagen pathway” (The United States of America as represented by the …, priority 2002, dated 2010).

Assays:
[1] = test system: GM-macrophages; assay: HLA-DR expression on GM-macrophages; type: cell-based, human; details: pretreatment of 5-day GM-macrophages, 30 minutes
Protocol: The leukocyte-rich preparation was overlaid on Accu-prep in 50 ml tubes and the tubes were centrifuged at 800×g for 20 minutes at room temperature. PBMC fractions were collected, washed once with PBS at room temperature and twice with complete medium at 4° C. and resuspended in the same medium. Monocytes were further purified by using iso-osmotic Percoll gradient. At this stage, the purity of monocytes was higher than 90%. The cells (5×10^5/ml) were allowed to adhere to the surface of 6-well plates. After a 5-hour incubation at 37° C., nonadherent cells were removed and adherent cells were induced to differentiate into macrophages by incubation in the presence of GM-CSF (50 ng/ml) for 5 to 7 days to produce GM-CSF-induced macrophages (GM-macrophages). Five-day GM-macrophages were incubated for additional 2 days with GM-CSF in the presence of an agonistic anti-human DDR1 monoclonal mouse against the extracellular domain of DDR1 (IgM 513). To measure the effect of SB203580, 5-day GM-macrophages were pretreated with SB203580, for 30 minutes.

[2] = test system: PMN; assay: MCP-1 release by PMN (neutrophils), ELISA; type: cell-based, human
Protocol: Human PMN and peripheral blood mononuclear cells (PBMC) were obtained from heparinized blood from human donors (10 units of heparin per ml of blood). One volume of 5% dextran (T-500 Pharmacia, Piscataway, N.J.) in phosphate buffered saline (PBS) was added to three volumes of blood in 50 ml polypropylene tubes. After a 40 minute incubation at room temperature, the leukocyte-rich plasma layer was removed and overlaid onto Lymphoprep in 50 ml tubes and the tubes were centrifuged at 800×g for 20 minutes at room temperature. PMN were separated from erythrocytes by lysis in 0.2% NaCl, washed in complete medium three times at 4° C. and resuspended in complete medium. PBMC contained in the PMN preparations obtained by this method were less than 0.5% by morphologic examination. Cell viability was higher than 98% by trypan blue staining.
A panel of cytokines was previously tested for their ability to induce MCP-1 production in PMN and it was reported that TNF-α and IFN-γ could cooperate to induce a high level of MCP-1 production (Yamashiro et al., J. Leukoc. Biol. 69:698, 2001). […] The majority of MCP-1 was released between 24 hours and 48 hours, showing a delayed kinetics of MCP-1 release. […] The effect of IFN-γ was dose-dependent.
To confirm that activation of DDR1 was responsible for the increased release of MCP-1 by PMN treated with IFN-γ and collagen, 513 anti-DDR1 Ab was used instead of collagen. The concentrations of MCP-1 were measured in the Lymphokine Testing Laboratory, Clinical Services Program, SAIC-Frederick (Frederick, Md.) with an ELISA kit (R&D Systems) specific for human MCP-1.

[3] = target: T1, DDR1b (Homo sapiens, UniProt Q08345); assay: Autophosphorylation of DDR1b overexpressed in THP-1 cells; type: cell-based
T1 construct: one of the clones, clone 11B, contained the full-length human DDR1b cDNA; expressed in transfected cells; host or cells: THP-1 human monocytic leukemia cells, retroviral vector pLXSN, G418-selected clones
Protocol: Using the retrovirus-infected cell lines, the effect of collagen type I on the phosphorylation of DDR1 proteins was tested. Two million cells in 3 ml complete medium were added onto collagen type I-coated plastic plates and incubated at 37° C. for various times. Cell lysates were prepared and immunoprecipitation was performed with the anti-DDR1 antibody. One-fourth of the immunoprecipitated samples was subjected to SDS-PAGE and Western blotting. The membranes were blotted with anti-pTyr and anti-DDR1 antibody. Low levels of constitutive autophosphorylation of both receptors were detected. The levels of autophosphorylation increased slightly at 15 minutes and peaked at 90 minutes after activation of the cells on collagen type I-coated plastic plates. The peak level was maintained for up to 240 minutes for DDR1a, which is consistent with the previously reported delayed kinetics of […] autophosphorylation in other cell types (Vogel FASEB J, (Suppl.), S77-S82, 1999). In contrast, autophosphorylation of DDR1b decreased after 90 minutes of collagen-activation.
Parental, mock, DDR1a- or DDR1b-overexpressing THP-1 cells were plated at 5×10^6/ml on uncoated tissue culture plates and stimulated with PMA (10 nM) for 24 hours, and then starved in RMPI 1640 without FCS for 10 hours. Subsequently cells were washed three times with PBS, and then incubated in the presence of 50 μg/ml collagen type I for various times.
Ten million cells were lysed on ice for 20 minutes in a buffer containing 50 mM NaCl, 20 mM Tris-HCl, 50 mM sodium fluoride, 30 mM Na4P2O7, 5 mM EGTA, 3 mM sodium orthovanadate, 1% Triton X-100, 1 mg/ml leupeptin, 1 mM PMSF, 1 mg/ml aprotinin, 1 mg/ml pepstatinA and 100 μM sodium orthovanadate treated with H2O2. […]
Eluted proteins were analyzed on 8% polyacrylamide gels by SDS-PAGE and transferred electrophoretically to nitrocellulose membranes at 150 mA for 1 hour by a semi-dry system. […] To detect phosphorylated or nonphosphorylated p38 MAP kinase or ATF-2, 20 μl of cell lysates were directly mixed with 20 μl of sample buffer and then analyzed.

[4] = PMA-treated cells, 50 μg/ml collagen type I

T1 sequence (Q08345 19-913): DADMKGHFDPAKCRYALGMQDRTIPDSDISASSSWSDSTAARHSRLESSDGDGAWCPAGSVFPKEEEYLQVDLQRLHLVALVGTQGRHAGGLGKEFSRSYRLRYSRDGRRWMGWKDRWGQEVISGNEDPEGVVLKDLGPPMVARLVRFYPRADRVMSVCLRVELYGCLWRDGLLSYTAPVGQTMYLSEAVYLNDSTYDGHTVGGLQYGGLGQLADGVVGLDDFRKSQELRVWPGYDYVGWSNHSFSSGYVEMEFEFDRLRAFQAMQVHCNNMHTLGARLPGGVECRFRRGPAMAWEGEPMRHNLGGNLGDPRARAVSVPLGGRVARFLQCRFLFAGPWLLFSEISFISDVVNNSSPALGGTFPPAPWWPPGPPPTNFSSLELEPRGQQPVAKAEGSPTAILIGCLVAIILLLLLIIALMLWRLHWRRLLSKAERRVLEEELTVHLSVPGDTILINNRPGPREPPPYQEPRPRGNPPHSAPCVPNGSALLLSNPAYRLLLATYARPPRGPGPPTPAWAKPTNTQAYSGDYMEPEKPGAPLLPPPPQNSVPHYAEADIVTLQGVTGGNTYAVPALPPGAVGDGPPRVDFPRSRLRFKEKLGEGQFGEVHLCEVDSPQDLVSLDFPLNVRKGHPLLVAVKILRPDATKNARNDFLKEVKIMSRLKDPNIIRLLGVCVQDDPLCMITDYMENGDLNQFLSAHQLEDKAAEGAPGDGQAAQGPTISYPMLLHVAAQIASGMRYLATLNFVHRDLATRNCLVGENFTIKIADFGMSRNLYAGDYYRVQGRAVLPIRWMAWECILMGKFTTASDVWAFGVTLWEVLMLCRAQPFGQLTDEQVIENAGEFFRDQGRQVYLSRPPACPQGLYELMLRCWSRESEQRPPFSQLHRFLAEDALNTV

| Molecule | agonistic antibody-induced increase of HLA-DR-positive cells [1] | effect on MCP-1 production ([2]; GM-CSF-treated PMN) | effect on MCP-1 production ([2]; PMN treated with TNF-α plus IFN-γ or INF-α plus IFN-γ plus GM-CSF) | effect on MCP-1 production ([2]; PMN, no cytokine or TNF-α added) | time autophosphorylation detectable [3, 4] | time of peak autophosphorylation [3, 4] | time of peak autophosphorylation ([3]; collagen type I-coated plates, cells not PMA-treated) |
| --- | --- | --- | --- | --- | --- | --- | --- |
| C[S+]([O-])c1ccc(-c2nc(-c3ccncc3)c(-c3ccc(F)cc3)[nH]2)cc1 (stereo not shown) [SB203580] | completely inhibited |  |  |  |  |  |  |
| collagen |  | no significant effect | negative effect | no significant effect | 30 min | 60 min | 90 min |
